# Values of other authors, collected in patent publication US20240398979A1, “Compositions and Methods for Treating Dopamine Disorders” (METAQOR LLC, priority 2020, published 2024).
# System: not given
# Conditions: not given
row,Molecule,in vivo half-life [min]
1,"brain-derived neurotrophic factor (protein, UniProt P23560 19-247, looked up, neurotrophin) Neurotrophic factor BDNF …: APMKEANIRGQGGLAYPGVRTHGTLESVNGPKAGSRGLTSLADTFEHVIEELLDEDQKVRPNEENNKDADLYTSRVMLSSQVPLEPPLLFLLEEYKNYLDAANMSMRVRRHSDPARRGELSVCDSISEWVTAADKKTAVDMSGGTVTVLEKVPVSKGQLKQYFYETKCNPMGYTKEGCRGIDKRHWNSQCRTTQSYVRALTMDSKKRIGWRFIRIDTSCVCTLTIKRGR",< 5

# System: methamphetamine use disorder
# Conditions: randomized controlled trials / meta-analyses
row,Molecule,benefit in treatment of MUD
1,CN1CCN2c3ncccc3Cc3ccccc3C2C1 (stereo not shown) [mirtazapine],not effective
2,O=C1CC[C@@]2(O)[C@H]3Cc4ccc(O)c5c4[C@@]2(CCN3CC2CC2)[C@H]1O5 [naltrexone],insufficient evidence of benefit for reducing MUD
3,c1cnc2cc3c(cc2n1)[C@@H]1CNC[C@H]3C1 [varenicline],insufficient evidence of benefit for reducing MUD
4,NCC(CC(=O)O)c1ccc(Cl)cc1 (stereo not shown) [baclofen],insufficient evidence of benefit for reducing MUD
5,COC(=O)C(c1ccccc1)C1CCCCN1 (stereo not shown) [methylphenidate],low-strength evidence that methylphenidate may reduce METH use
6,CC1(C)O[C@@H]2[C@@H](CO[C@@]3(COS(N)(=O)=O)OC(C)(C)O[C@@H]23)O1 [Topiramate],insufficient evidence of benefit for reducing MUD
7,Cc1nccn1CC1CCc2c(c3ccccc3n2C)C1=O (stereo not shown) [ondansetron],No effects
8,CC(NC(C)(C)C)C(=O)c1cccc(Cl)c1 (stereo not shown) [bupropion],not effective
9,O=C1CCc2ccc(OCCCCN3CCN(c4cccc(Cl)c4Cl)CC3)cc2N1 [aripiprazole],insufficient evidence of benefit for reducing MUD
10,CN[C@H]1CC[C@@H](c2ccc(Cl)c(Cl)c2)c2ccccc21 [sertraline],not effective
11,NCC1(CC(=O)O)CCCCC1 [gabapentin],insufficient evidence of benefit for reducing MUD
12,CNCC[C@@H](Oc1ccccc1C)c1ccccc1 [atomoxetine],insufficient evidence of benefit for reducing MUD
